According to patent US20230167121A1, “SUBSTITUTED {1,2,4,} TRIAZOLO{1,5-A} PYRIMIDINE COMPOUNDS AND USE IN STABILIZING MICROTUBULES” (THE TRUSTEES OF THE UNIVERSITY OF PENNSYLVANIA, priority 2020, published 2023):
Values joined by “and” are separate entries in the source; they are usually repeats but may differ in a detail not shown here. Equal entries are not always repeated. Structures can show the parent of a compound that is named as a salt. Where two headings read alike, the source gives them in different places. Each block holds one compound with its values, some of them ahead of it.

Assays:
acetylated α-tubulin = assay: cell-based assay of MT-stabilization: acetylated α-tubulin in QBI293 cell lysates by ELISA; conditions: for fold induction at 1 µM: QBI293, Table 4, 4 h, read-out: AcTub 1 μM (fold-change over control (DMSO)-treated cells)
Method: (§1) All test compounds were evaluated in a previously described cell-based assay of MT-stabilization (see Kovalevich, J., et al. (2016) Characterization of Brain-Penetrant Pyrimidine-Containing Molecules with Differential Microtubule-Stabilizing Activities Developed as Potential Therapeutic Agents for Alzheimer's Disease and Related Tauopathies. J Pharmacol Exp Ther 357, 432-450, incorporated herein by reference), in which compound-dependent changes in tubulin polymerization and total tubulin levels were determined after 4 h of incubation of QBI293 cells with 1 and 10 μM compound via quantification of acetylated α-tubulin and total tubulin in cell lysates by ELISA.
(§2) Novel C6 nitrile- and alkyne-substituted triazolopyrimidine examples that have improved in vitro activity relative to previously described examples, with the general structure depicted in Formula I. The activity of the novel C6-nitrile substituted compounds were tested in a previously described cellular assay of MT-stabilization (Kovalevich, J., et al. (2016)). As summarized in Table 2. below, eighteen examples were synthesized and tested. In all cases, these compounds were confirmed to be active Class I triazolopyrimidines. […] Table 2 provides fold-changes in acetylated α-tubulin and total α-tubulin levels in QB1293 cells after 4 h incubation with test compounds at either 1 or 10 μM. Data are expressed as the fold-change relative to vehicle-treated cells. *p<0.05 and **p<0.01 by one-way ANOVA.
(§3) Compounds produced according to the preceding synthetic schemes were for microtubule stabilization. Fold-changes in acetylated α-tubulin (AcTub) and α-tubulin (α-Tub) levels in QB1293 cells after 4 h incubation with test compounds at either 1 or 10 μM. Reported values for AcTub and α-Tub represent the fold-change over control (DMSO)-treated cells (*p<0.05 and **p<0.01 by one-way ANOVA); numbers in parentheses represent the fold-change of AcTub over positive control-treated cells (i.e., 100 nM of cevipabulin). Changes of +/−15% of control are deemed to be within the day-to-day assay variability and non-significant.

total α-tubulin = assay: cell-based assay of MT-stabilization: total α-tubulin in QBI293 cell lysates by ELISA; conditions: QB1293 cells
Method: as §1, §2, §3

MTs [1] = conditions: cited from earlier work
[2] = Plasma and brain compound determinations (LC-MS/MS); assay type: in vivo; conditions: CD1 mice, 2.5 mg/kg each, one hour after dosing; for concentration at 1 h / Kp at 1 h: CD1, mouse, 2.5 mg/kg
Method: CD1 mice (n=3) were dosed concurrently with CNDR-51990 and CNDR-51993 (representing a 1:1 mixture of two diastereoisomers, 52017 (67) and 52016 (68)) at 2.5 mg/kg each). One hour after dosing, mice were euthanized and blood collected, followed by perfusion with saline. Mouse brains were homogenized in 10 mM ammonium acetate, pH 5.7 (1:2; w/v) using a handheld sonic homogenizer. Mouse plasma was obtained from blood that was collected into a 1.5 ml tube containing 0.5M EDTA solution and which was centrifuged for 10 minutes at 4500 g at 4° C. Aliquots (50 μl) of brain homogenates or plasma were mixed with 0.2 ml of acetonitrile, centrifuged at 15,000×g, and the resulting supernatant was used for subsequent LC-MS/MS analysis. The LC-MS/MS analysis was conducted by Inotiv, Inc., utilizing methods essentially as previously described (Lou et al., J. Med. Chem. 57:6116-27, 2014).

B/P of Table 4 = conditions: in vivo
MTs [3] = conditions: versus vincristine, taxol, colchicine; cited from earlier work
[4] = QB1293 cells, *p<0.05, **p<0.01
[5] = QBI293, 4 h, Table 4, 4 h, 1 μM, read-out: α-Tub l μM (fold-change over control (DMSO)-treated cells)
[6] = QBI293, 4 h, Table 4, 4 h, 10 μM, read-out: α-Tub 10 μM (fold-change over control (DMSO)-treated cells)
[7] = QBI293, 4 h, 4 h incubation, 1 μM compound, relative to vehicle-treated cells, read-out: α-Tub 1 μM (fold-change in total α-tubulin)
[8] = QBI293, 4 h, 4 h incubation, 10 μM compound, relative to vehicle-treated cells, read-out: α-Tub 10 μM (fold-change in total α-tubulin)
[9] = dosed concurrently, individual animals 1-3, listed as 51990 (70)

Compound: 4-(5-chloro-7-(piperidin-1-yl)-[1,2,4]triazolo[1,5-a]pyrimidin-6-yl)-3,5-difluorobenzonitrile [Compound 74]
Class (acetylated α-tubulin; Table 2, triazolopyrimidine MT-activity class): 1
α-Tub 1 μM (fold-change in total α-tubulin) (total α-tubulin; 4 h incubation, 1 μM compound, relative to vehicle-treated cells): 0.98 +/− 0.02 fold-change
α-Tub 10 μM (fold-change in total α-tubulin) (total α-tubulin; 4 h incubation, 10 μM compound, relative to vehicle-treated cells): 0.95 +/− 0.03 fold-change

Compound: Cc1nc2nc(Cl)c(-c3c(F)cc(C#CCCO)cc3F)c(N(C)[C@H](C)C(C)C)n2n1 [TAL-665, (R)-4-(4-(5-chloro-2-methyl-7-(methyl(3-methylbutan-2-yl)amino)-[1,2,4]triazolo[1,5-a]pyrimidin-6-yl)-3,5-difluorophenyl)but-3-yn-1-ol]
fold induction at 1 µM (acetylated α-tubulin; [4]): 1.05
fold induction at 1 µM (total α-tubulin; [5]): 0.91
fold induction at 10 µM (total α-tubulin; [6]): 0.96

Compound: CO[C@H]1C[C@H]2CC[C@@H](C1)N2c1c(-c2c(F)cc(F)cc2F)c(Cl)nc2ncnn12 [Compound 2]
binding to MTs / unpolymerized tubulin heterodimers (MTs [1]): binds exclusively to MTs and not to unpolymerized tubulin heterodimers

concentration at 1 h ([2]; brain, dosed concurrently, individual animals 1-3, read-out: Brain Concentration): 158 ng/g
concentration at 1 h ([2]; brain, dosed concurrently, mean, n=3, read-out: Brain Concentration, Mean): 183 ng/g
Kp at 1 h ([2]; brain, individual animals 1-3, read-out: Brain/Plasma): 0.9
Kp at 1 h ([2]; brain, mean, n=3, read-out: Brain/Plasma, Mean): 1.21
concentration at 1 h ([2]; plasma, dosed concurrently, individual animals 1-3, read-out: Plasma Concentration): 175 ng/mL
concentration at 1 h ([2]; plasma, dosed concurrently, mean, n=3, read-out: Plasma Concentration, Mean): 151 ng/mL
Brain Concentration [2, 9]: 186 ng/g and 206 ng/g
Plasma Concentration [2, 9]: 133 ng/mL and 146 ng/mL
Brain/Plasma ([2]; individual animals 1-3, listed as 51990 (70)): 1.40 and 1.41
Compound: C[C@@H](Nc1c(-c2ccc(C#N)cc2F)c(Cl)nc2ncnn12)C(C)(C)C [Compound 70, (R)-4-(5-Chloro-7-((3,3-dimethylbutan-2-yl)amino)-[1,2,4]triazolo[1,5-a]pyrimidin-6-yl)-3-fluorobenzonitrile]
AcTub 10 μM (fold-change in acetylated α-tubulin) (acetylated α-tubulin; QB1293 cells, 4 h incubation, 10 μM compound, relative to vehicle-treated cells, *p<0.05, **p<0.01): 7.67 ± 0.70 fold-change
fold induction at 1 µM (total α-tubulin; [7]): 0.86
fold induction at 10 µM (total α-tubulin; [8]): 0.93

Compound: C[C@@H](Nc1c(-c2c(F)cc(C#CCN(C)C)cc2F)c(Cl)nc2ncnn12)C(C)(C)C [TAL-555, (R)-5-chloro-6-(4-(3-(dimethylamino)prop-1-yn-1-yl)-2,6-difluorophenyl)-N-(3,3-dimethylbutan-2-yl)-[1,2,4]triazolo[1,5-a]pyrimidin-7-amine]
fold induction at 1 µM (acetylated α-tubulin; [4]): 1.36
fold induction at 1 µM (total α-tubulin; QBI293, Table 4, 4 h, 1 μM, read-out: α-Tub l μM (fold-change over control (DMSO)-treated cells)): 1
fold induction at 10 µM (total α-tubulin; QBI293, Table 4, 4 h, 10 μM, read-out: α-Tub 10 μM (fold-change over control (DMSO)-treated cells)): 0.84

Kp (B/P of Table 4): 0.44
Compound: CC(C)[C@@H](C)Nc1c(-c2c(F)cc(C#CCCO)cc2F)c(Cl)nc2ncnn12 [TAL-598, (R)-4-(4-(5-chloro-7-((3-methylbutan-2-yl)amino)-[1,2,4]triazolo[1,5-a]pyrimidin-6-yl)-3,5-difluorophenyl)but-3-yn-1-ol]
fold induction at 1 µM (total α-tubulin; [5]): 0.92

Compound: CC(C)[C@@H](C)Nc1c(-c2c(F)cc(C#CCCCO)cc2F)c(Cl)nc2ncnn12 [TAL-599, (R)-5-(4-(5-chloro-7-((3-methylbutan-2-yl)amino)-[1,2,4]triazolo[1,5-a]pyrimidin-6-yl)-3,5-difluorophenyl)pent-4-yn-1-ol]
fold induction at 1 µM (acetylated α-tubulin; [4]): 2.6
fold induction at 1 µM (total α-tubulin; [5]): 1

Compound: CNCCCOc1cc(F)c(-c2c(Cl)nc3ncnn3c2N[C@@H](C)C(F)(F)F)c(F)c1 [Cevipabulin]
competition for binding to MTs (MTs [3]): competes with vincristine but not taxol or colchicine

Compound: C[C@@H](Nc1c(-c2c(F)cc(C#CCCN)cc2F)c(Cl)nc2ncnn12)C(C)(C)C [TAL-580, (R)-6-(4-(4-aminobut-1-yn-1-yl)-2,6-difluorophenyl)-5-chloro-N-(3,3-dimethylbutan-2-yl)-[1,2,4]triazolo[1,5-a]pyrimidin-7-amine hydrochloride]
fold induction at 1 µM (total α-tubulin; [5]): 0.96
fold induction at 10 µM (total α-tubulin; [6]): 0.91
Kp (B/P of Table 4): 1.04

Kp (B/P of Table 4): 0.46
Compound: [2H]C([2H])(O)CC#Cc1cc(F)c(-c2c(Cl)nc3ncnn3c2N[C@H](C)C(C)(C)C)c(F)c1 [TAL-651, (R)-4-(4-(5-chloro-7-((3,3-dimethylbutan-2-yl)amino)-[1,2,4]triazolo[1,5-a]pyrimidin-6-yl)-3,5-difluorophenyl)but-3-yn-1,1-d2-1-ol]
fold induction at 1 µM (total α-tubulin; [5]): 1.02
fold induction at 10 µM (total α-tubulin; [6]): 1.01

Compound: C[C@H](Nc1c(-c2c(F)cc(I)cc2F)c(Cl)nc2ncnn12)C(F)(F)F [TAL-640]
fold induction at 1 µM (acetylated α-tubulin; [4]): 1.9
fold induction at 1 µM (total α-tubulin; [5]): 1.01
fold induction at 10 µM (total α-tubulin; [6]): 0.93

Kp (B/P of Table 4): 0.47
Compound: C[C@@H](Nc1c(-c2c(F)cc(C#CCCO)cc2F)c(Cl)nc2ncnn12)C(C)(C)C [TAL-600, (R)-4-(4-(5-chloro-7-((3,3-dimethylbutan-2-yl)amino)-[1,2,4]triazolo[1,5-a]pyrimidin-6-yl)-3,5-difluorophenyl)but-3-yn-1-ol]
fold induction at 1 µM (total α-tubulin; [5]): 0.98
fold induction at 10 µM (total α-tubulin; [6]): 0.98

Compound: CC(C)[C@@H](C)Nc1c(-c2ccc(C#N)cc2F)c(Cl)nc2ncnn12 [Compound 67, (R)-4-(5-chloro-7-((3-methylbutan-2-yl)amino)-[1,2,4]triazolo[1,5-a]pyrimidin-6-yl)-3-fluorobenzonitrile]
AcTub l μM (fold-change in acetylated α-tubulin) (acetylated α-tubulin; QB1293 cells, 4 h incubation, 1 μM compound, relative to vehicle-treated cells, *p<0.05, **p<0.01, listed as 52017 (67)): 2.79 +/− 1.11 fold-change
fold induction at 1 µM (total α-tubulin; [7]): 0.99
fold induction at 10 µM (total α-tubulin; [8]): 0.93
